From PMC11243530 (Molecules, 2024)
Read-outs that look alike come from different tables or passages of the source. Positions of bridges follow the written chain, without caps; N, C: chain ends. Non-standard residues stand in square brackets, D forms with d. Residues, ends and D or L forms follow the SMILES beside them. No end group written: not given here. *: point of attachment. X1 = CC(=O)N[C@@H](Cc1ccccc1)C(=O)N[C@H]1Cc2ccc(cc2)OC/C=C/COc2ccc(cc2)C[C@@H](C(=O)*)NC1=O; AllylGly = C=CC[C@H](N)C(=O)O

Legend:
KOR [1] = experiment: Dynorphin-stimulated [^35S]GTPγS assay, KOR antagonism (Schild analysis); type: biochemical; conditions: for agonist activity / type of antagonism at KOR: [^35S]GTPγS binding assay
cloned rat KOR [2] = molecular target: T1, cloned rat KOR (Rattus norvegicus, UniProt P34975); experiment: Radioligand binding, competitive inhibition of [^3H]diprenorphine, KOR
T1 construct: expressed in transfected cells

cloned rat MOR = molecular target: T2, cloned rat MOR (Rattus norvegicus, UniProt P33535); experiment: Radioligand binding, competitive inhibition of [^3H]DAMGO, MOR
T2 construct: expressed in transfected cells

cloned rat KOR [3] = molecular target: T1, cloned rat KOR; conditions: read-out: KOR Ki ± SEM; cited from earlier work
KOR [4] = molecular target: KOR; parameters: method as in PMID 34162205; conditions: ref [23]; cited from earlier work
KOR [5] = system: KOR; parameters: method as in PMID 34162205; conditions: ref [23]; read-out: KOR agonist potency EC50; cited from earlier work
KOR [6] = conditions: following a single injection; ref [4]; cited from earlier work
Excerpt: Recently, antagonists of the kappa opioid receptor (KOR) have attracted significant attention due to their potential use in treating various central nervous system (CNS) disorders, especially mood disorders and substance abuse. […] Consequently, there has been a growing interest in KOR antagonists, including peptide KOR antagonists, with m ...

KOR [7] = conditions: [^35S]GTPγS binding assay; known comparator; cited from earlier work
KOR [8] = conditions: ref [6]; cited from earlier work
ẟ opioid receptor (DOR) = conditions: ref [6]; cited from earlier work
[9] = system: stress-induced reinstatement of cocaine-seeking behavior; conditions: mouse conditioned place preference; i.c.v.; ref [7]; cited from earlier work
proteases = conditions: linear peptide; general statement; cited from earlier work
[10] = system: KOR (antagonism of U50,488 antinociception); conditions: mouse 55 °C warm-water tail withdrawal; i.c.v.; ref [7]; cited from earlier work

Molecule: CC(=O)N[C@@H](Cc1ccccc1)C(=O)N[C@H]1Cc2ccc(cc2)OC/C=C/COc2ccc(cc2)C[C@@H](C(=O)N[C@@H](CCCNC(=N)N)C(=O)N[C@H]2CC=CC[C@@H](C(=O)N[C@@H](CCCNC(=N)N)C(=O)N3CCC[C@H]3C(=O)N[C@@H](CCCCN)C(N)=O)NC(=O)[C@H](CCCNC(=N)N)NC(=O)[C@H](CCCNC(=N)N)NC2=O)NC1=O [Peptide 4] (X1-R[AllylGly]RR[AllylGly]RPK-NH2; staple 2-5)
- agonist activity / type of antagonism at KOR (KOR [1]): did not exhibit appreciable agonist activity and functioned as a potent competitive KOR antagonist
- agonist activity / type of antagonism at KOR (KOR [1]; listed as bicyclic analog): exhibits potent KOR antagonism
- Kb (KOR [1]; dynorphin A-(1–13)-NH2-stimulated [^35S]GTPγS binding, KOR membranes, peptidase inhibitors present, four concentrations 1–1000 nM of 4, Schild analysis, mean values from 4 independent experiments): 0.9 nM
- KOR affinity and KOR antagonism relative to monocyclic analogs (KOR [1]; dynorphin-stimulated [^35S]GTPγS assay and KOR binding): comparable to monocyclic analogs
- Ki (cloned rat KOR [2]): 26.4 ± 5.9 nM
- KOR selectivity over MOR (cloned rat KOR [2]; MOR Ki / KOR Ki): 97 fold
- Ki Ratio (MOR/KOR) (cloned rat KOR [2]; MOR Ki / KOR Ki): 97
- Ki (cloned rat MOR): 2570 ± 500 nM

Molecule: 3: monocyclic arodyn analog, RCM cyclization between Tyr(All) residues in positions 2 and 3 (FYYRLRRARPK) [Peptide 3]
- Ki (cloned rat KOR [3]): 55.4 ± 4.1 nM

Molecule: dynorphin A-(1–13)-NH2: KOR agonist reference peptide (YGGFLRRIRPKLK-NH2; UniProt P01213 207-219, looked up, fragment)
- Ki (KOR [4]): 0.3 nM
- EC50 (KOR [5]): 2.8 nM

Molecule: CC(C)[C@@H](CN1CC[C@@](C)(c2cccc(O)c2)[C@@H](C)C1)NC(=O)[C@H]1Cc2ccc(O)cc2CN1 [JDTic]
- duration of action (KOR [6]): exhibited prolonged effects, with their action extending from days to weeks

Molecule: Ac[Phe^1,2,3,Arg^4,D-Ala^8]dynorphin A-(1–11)-NH2 [arodyn]
- agonist activity / type of antagonism at KOR (KOR [7]): did not exhibit appreciable agonist activity and functioned as a potent competitive KOR antagonist
- KOR antagonism in vitro (KOR [8]): potent KOR antagonist in vitro
- Ki (ẟ opioid receptor (DOR)): > 5000 nM
- reinstatement of cocaine-seeking behavior induced by stress [9]: prevented the reinstatement of cocaine-seeking behavior induced by stress
- susceptibility to proteolysis (proteases): susceptible to rapid breakdown by proteases
- antagonism of antinociception produced by U50,488 [10]: antagonized antinociception produced by the KOR-selective agonist U50,488
